Reference: patent publication US10251874B2, “Crystalline forms of a JAK inhibitor compound” (THERAVANCE BIOPHARMA R&D IP, LLC, priority 2017, dated 2019)
Like-named read-outs stand apart in the source and are kept apart here.

Key:
[1] = system: IL-27 induced CXCL10 secretion in EpiAirway tissue cultures; assay: Assay 15: IL-27 induced CXCL10 in human 3D airway cultures; assay type: cell-based; conditions: 192 h, Day 8, average from 3 or 4 donors, read-out: % inhibition of IL-27 induced CXCL10 secretion (±STDV)
Procedure: EpiAirway tissue cultures were obtained from Mattek (AIR-100). Cultures were derived from asthmatic donors. In a cell culture insert, human derived tracheal/bronchial epithelial cells were grown and differentiated on a porous membrane support, allowing an air-liquid interface with warmed culture medium below the cells and a gaseous test atmosphere above. Tissues were cultured in maintenance media (Mattek, AIR-100-MM) in a 37° C., 5% CO2 humidified incubator. Four donors were tested. On Day 0, tissue cultures were treated with test compounds at 10 μM, 1 μM and/or 0.1 μM. Compounds were diluted in dimethyl sulfoxide (DMSO, Sigma) to a final concentration of 0.1%. DMSO at 0.1% was used as a vehicle control. Test compounds were incubated with cultures for 1 hour at 37° C., 5% CO2, followed by the addition of pre-warmed media containing IFNγ (R&D Systems) or IL-27 (R&D Systems) at a final concentration at 100 ng/ml. Tissue cultures were maintained for 8 days. Media was replaced every 2 days with fresh media containing compounds and IFNγ or IL-27. On Day 8, tissue cultures and supernatants were collected for analysis. Supernatant samples were assayed for CXCL10 (IP-10) and CXCL9 (MIG) using luminex analysis (EMD Millipore). Data is expressed as % Inhibition +/−standard deviation (±STDV). Percent inhibition was determined by compound inhibitory potency against IFNγ or IL-27 induced CXCL10 or CXCL9 secretion compared to vehicle treated cells. Data is the average from 3 or 4 donors. Compound 1 was able to inhibit IFNγ induced CXCL10 secretion by 99%±2.0 (at 10 μM), 71%±19 (at […]) and 17%±12 (at 0.1 μM) when compared to vehicle control. Compound 1 was able to inhibit IFNγ induced CXCL9 secretion by 100%±0.3 (at 10 μM), 99%±0.9 (at 1 μM) and 74%±17 (at 0.1 μM) when compared to vehicle. […] Compound 1 was able to inhibit IL-27 induced CXCL9 secretion by 100%±0 (at 10 μM), 95%±3.7 (at 1 μM) and 75%±3.5 (at 0.1 μM) when compared to vehicle control.

[2] = Assay 12: Ocular pharmacokinetics in rabbit eyes; assay type: in vivo, New Zealand white rabbits; conditions: for half-life: New Zealand white, vitreous, intravitreal solution formulation, 200 μg/eye and 50 μg/eye
Procedure: The objective of this assay was to determine the pharmacokinetics of the compound 1 in rabbit ocular tissues.
The compound of the invention, 5-ethyl-2-fluoro-4-(3-(5-(1-methylpiperidin-4-yl)-4,5,6,7-tetrahydro-1H-imidazo[4,5-c]pyridin-2-yl)-1H-indazol-6-yl)phenol (1) was dissolved in either 10% 2-hydroxypropyl-β-cyclodextrin to attain a target concentration of 4 mg/mL or in purified water to attain a target concentration of 1 mg/mL . Bilateral intravitreal injection (50 μL/eye) of the solution of test compound was administered to New Zealand white rabbits in two dose groups, 200 μg/eye and 50 μg/eye, respectively, for the cyclodextrin and water vehicle formulations, respectively. The test compound concentration was measured in ocular tissues: vitreous, aqueous, retina/choroid and iris-ciliary body at pre-determined time points post injection (30 min, 4 h, 1 d, 3 d, 7 d, 14 d). Two rabbits (four eyes) were dosed for each time point.
A suspension formulation was prepared by combining crystalline compound 1 of Example 2 with 0.5% hydroxypropyl methylcellulose (HPMC E5)+0.02% Tween 80 to attain a target concentration of 10 mg/mL. Bilateral intravitreal injection (50 μL/eye) of the suspension of test compound was administered to New Zealand white rabbits (500 μg/eye). The test compound concentration was measured in ocular tissues as in the […] at 30 min, 2 wks, 4 wks, 6 wks, and 8 wks post injection. […] The behavior is consistent with the solubility of compound 1 in the vehicle and the ocular pharmacokinetic behavior in the solution formulation. The drug concentration in plasma was measured and found to be at least 3 orders of magnitude lower than the concentration in vitreous tissue.

[3] = system: IFNγ-induced pSTAT1 in CD14+ monocytes; assay: Assay 7: Inhibition of IFNγ-induced pSTAT1 in CD14+ monocytes; assay type: cell-based; conditions: Homo sapiens, Monocyte, flow cytometry, read-out: pIC50, inhibition of IFNγ-induced pSTAT1 (converted)
Procedure: The potency of the test compound for inhibition of interferon gamma (IFNγ) stimulated STAT1 phosphorylation was measured in CD14-positive (CD14+) monocytes derived from human whole blood (Stanford Blood Center) using flow cytometry. Because IFNγ signals through JAK, this assay provides a measure of JAK cellular potency.
Monocytes were identified using a fluorescein isothiocyanate (FITC) conjugated anti-CD14 antibody (Clone RM052, Beckman Coulter), and an Alexa Fluor 647 conjugated anti-pSTAT1 antibody (pY701, Clone 4a, BD Biosciences) was used to detect STAT1 phosphorylation.
Human peripheral blood mononuclear cells (PBMC) were isolated from human whole blood of healthy donors using a ficoll gradient. […] Cells were washed twice with FACS buffer, and then resuspended in 1:10 anti-pSTAT1 Alexa Fluor 647:FACS buffer (100 μL) for 30 min at RT in the dark, washed twice in FACS buffer, and analyzed using a LSRII flow cytometer (BD Biosciences).
To determine the inhibitory potency of the test compound, the median fluorescent intensity (MFI) of pSTAT1 was measured in CD14+ monocytes. IC50 values were determined from analysis of the inhibition curves of MFI vs compound concentration. Data are expressed as pIC50 (negative decadic logarithm IC50) values.

With `CCc1cc(O)c(F)cc1-c1ccc2c(-c3nc4c([nH]3)CCN(C3CCN(C)CC3)C4)n[nH]c2c1` [Compound 1, 5-ethyl-2-fluoro-4-(3-(5-(1-methylpiperidin-4-yl)-4,5,6,7-tetrahydro-1H-imidazo[4,5-c]pyridin-2-yl)-1H-indazol-6-yl)phenol] the inhibition at 0.1 µM ([1]; at 0.1 μM) was 73%, the inhibition at 1 µM ([1]; at 1 μM) was 98% and the inhibition at 10 µM ([1]; at 10 μM) was 108%. For the same compound, the half-life ([2]; read-out: half-life of initial decrease in concentration in vitreous tissue (converted)) was roughly 12 h, the half-life ([2]; read-out: terminal half-life in vitreous tissue (converted)) was roughly 86.4 h and the “clearance rate (linear decrease in drug concentration in the vitreous)” value ([2]; intravitreal suspension of crystalline compound 1 of Example 2, 500 μg/eye, 30 min to 6 weeks) was “approximately 3 μg/mL/day”. It also gave an IC50 [3] of roughly 31.6 nM.
